This is an account of results in EP4722219A1 (Gan & Lee Pharmaceuticals Co., Ltd., priority 2023, dated 2024).

Common to all, as to type: cell-based
Assay [1] deals with T1, ERα (Homo sapiens, UniProt P03372).
T1 sequence (P03372 1-595): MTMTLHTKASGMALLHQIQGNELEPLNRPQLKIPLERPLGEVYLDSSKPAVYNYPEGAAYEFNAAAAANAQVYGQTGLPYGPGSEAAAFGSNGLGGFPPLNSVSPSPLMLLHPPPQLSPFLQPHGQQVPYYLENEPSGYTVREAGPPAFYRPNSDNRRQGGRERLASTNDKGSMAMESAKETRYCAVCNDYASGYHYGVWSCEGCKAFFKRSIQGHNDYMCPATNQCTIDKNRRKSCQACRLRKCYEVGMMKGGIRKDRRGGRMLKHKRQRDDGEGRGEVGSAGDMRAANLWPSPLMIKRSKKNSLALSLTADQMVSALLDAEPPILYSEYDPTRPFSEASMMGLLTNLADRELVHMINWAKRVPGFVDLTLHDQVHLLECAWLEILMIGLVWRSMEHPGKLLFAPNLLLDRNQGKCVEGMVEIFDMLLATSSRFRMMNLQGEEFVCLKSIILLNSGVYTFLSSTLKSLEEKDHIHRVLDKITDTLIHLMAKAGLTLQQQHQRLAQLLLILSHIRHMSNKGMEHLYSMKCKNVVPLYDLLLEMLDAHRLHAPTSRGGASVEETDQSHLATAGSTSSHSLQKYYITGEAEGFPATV
Nature of the assay: ERα degradation in MCF-7 cells (Western blot). The following applies: 4 hours. The arrangement: host or cells: MCF-7. In a few lines: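 ERα degradation was quantified by immunoblot densitometry, ERα signal divided by internal-reference signal and compared with control. Compounds were applied to MCF-7 cells for 4 hours at final concentrations of 0.15–1000 nM, with 20 µg total protein loaded per lane.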
(In western blotting, separated proteins are transferred to a membrane and probed.)

The test system of the next assay is MCF-7 cells. Nature of the assay: Inhibition of cell proliferation in MCF-7 cells (CCK-8). The note with it: MCF-7 cell proliferation, 6 days treatment. A digest of the protocol: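 IC50 from CCK-8 viability-based inhibition after 6-day treatment of MCF-7 cells (800 cells/well, 10% FBS DMEM, 37 °C, 5% CO2) with serially varied compound concentrations.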
Assay [2] deals with T1, ERα. Nature of the assay: ERα degradation in T-47D cells (Western blot). The note with it: 4 hours. In a few lines: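 ERα was quantified by immunoblot of RIPA lysates (20 µg total protein), normalised to an internal reference band, and degradation was expressed against control. Lysates came from T-47D cells plated at 3×10^5 cells/well and dosed 4 hours at 37°C with compound at 0.15-1000 nM final concentration.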

The test system of a further assay is T-47D cells. Nature of the assay: Inhibition of cell proliferation in T-47D cells (CCK-8). The note with it: 6 days treatment, CCK-8 cell viability. A digest of the protocol:
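Viability by CCK-8 after a 6-day, 37 °C/5% CO2 exposure of T-47D cells (3,000/well, RPMI-1640 + 10% FBS) to graded PROTAC concentrations. Inhibition rates gave the IC50.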

Each structure is given as a SMILES string.

As usually defined, the IC50 is the concentration needed to halve the response being measured. Lower therefore signals greater potency in that assay. On to `O=C1CCC(N2Cc3c(ccc4c3OCC43CCC4(CCN(CC5CCN(c6ccc([C@@H]7c8ccc(O)cc8CC[C@@H]7c7ccccc7)cc6)CC5)CC4)CC3)C2=O)C(=O)N1` (stereo partly drawn) [ER-P-1, 3-(1"-((1-(4-((1R,2S)-6-hydroxy-2-phenyl-1,2,3,4-tetrahydronaphthalen-1-yl)phenyl)piperidin-4-yl)methyl)-6-oxo-6,8-dihydro-2H,7H-dipyrazole[furo[2,3-e]isoindole-3,1'-cyclohexane-4',4'-piperidin]-7-yl)piperidine-2,6-dione], for which the “Degradation rate of ERα in MCF-7 cells (%)” value on ERα [1] (1nM) worked out at 19%; at ERα [1] (10nM), 44%. Moreover, the IC50 was less than 0.256 nM with MCF-7 cells (Homo sapiens, MCF7, 144 h) and 3.74 nM in the assay on T-47D cells (Homo sapiens, T47D, 144 h). For the same molecule, the “Degradation rate of ERα in T-47D cells (%)” value on ERα [2] (1nM) came to 52%; at ERα [2] (10nM), 81%.
`O=C1CCC(Nc2ccc3c(c2)OCC2(CCN(C[C@H]4CC[C@@H](OC5CCN(c6ccc([C@@H]7c8ccc(O)cc8CC[C@@H]7c7ccccc7)cc6)CC5)CC4)CC2)C3)C(=O)N1` (stereo partly drawn) [ER-P-41]: the figures for the “Degradation rate of ERα in MCF-7 cells (%)” value on ERα [1] (1nM) and at ERα [1] (10nM) were 13% and 15%, respectively. Also, the IC50 with MCF-7 cells (Homo sapiens, MCF7, 144 h) came to 377 nM; in the assay with T-47D cells (Homo sapiens, T47D, 144 h) it was 37.3 nM. The “Degradation rate of ERα in T-47D cells (%)” value at ERα [2] (1nM) turned out to be 17%; on ERα [2] (10nM), 21%.
`C[C@@H]1Cc2cc(O)ccc2C(c2c(F)cc(N3CCC4(CCC(N5CCC6(CC5)COc5c6ccc6c5n(C)c(=O)n6C5CCC(=O)NC5=O)CC4)CC3)cc2F)N1CC(F)F` (stereo partly drawn) [ER-P-29, 3-(1'-(3-(4-((3R)-2-(2,2-difluoroethyl)-6-hydroxy-3-methyl-1,2,3,4-tetrahydroisoquinolin-1-yl)-3,5-difluorophenyl)-3-azaspiro[5.5]undecan-9-yl)-1-methyl-2-oxo-1,2-dihydro-3H,7H-spiro[benzofuro[6,7-d]imidazole-6,4'-piperidin]-3-yl)piperidine-2,6-dione]: the “Degradation rate of ERα in MCF-7 cells (%)” value at ERα [1] (1nM) was 54%; on ERα [1] (10nM), 25%. Moreover, the IC50 in the assay with MCF-7 cells (Homo sapiens, MCF7, 144 h) came to 140 nM; in the assay with T-47D cells (Homo sapiens, T47D, 144 h), 0.92 nM. Moreover, the entries for the “Degradation rate of ERα in T-47D cells (%)” value at ERα [2] (1nM) and at ERα [2] (10nM) were 53% and 41%, respectively.
For `C[C@@H]1Cc2cc(O)ccc2C(c2c(F)cc(N3CCC4(CCC(N5CC6(CCC7(CC6)COc6c7ccc7c6CN(C6CCC(=O)NC6=O)C7=O)C5)CC4)CC3)cc2F)N1CC(F)F` (stereo partly drawn) [ER-P-21, 3-(1-(3-(4-((3R)-2-(2,2-difluoroethyl)-6-hydroxy-3-methyl-1,2,3,4-tetrahydroisoquinolin-1-yl)-3,5-difluorophenyl)-3-azaspiro[5.5]undecan-9-yl)-6"-oxo-6",8"-dihydro-2"H,7"H-dispiro[azetidine-3,1'-cyclohexane-4',3"-furo[2,3-e]isoindol]-7"-yl)piperidine-2,6-dione], the “Degradation rate of ERα in MCF-7 cells (%)” value turned out to be 50% on ERα [1] (1nM) and 69% at ERα [1] (10nM). In addition, the IC50 in the assay with MCF-7 cells (Homo sapiens, MCF7, 144 h) turned out to be 15.1 nM; with T-47D cells (Homo sapiens, T47D, 144 h) it was 1.3 nM. Further, the “Degradation rate of ERα in T-47D cells (%)” value is recorded as 42% at ERα [2] (1nM) and 65% on ERα [2] (10nM).
In the case of `O=C1CCC(N2Cc3c(ccc4c3OCC43CCC4(CCN(C5CCN(c6ccc([C@@H]7c8ccc(O)cc8CC[C@@H]7c7ccccc7)cc6)CC5)CC4)CC3)C2=O)C(=O)N1` (stereo partly drawn) [ER-P-58], the figures for the “Degradation rate of ERα in MCF-7 cells (%)” value on ERα [1] (1nM) and on ERα [1] (10nM) were 42% and 69%, respectively. Moreover, the IC50 in the assay with MCF-7 cells (Homo sapiens, MCF7, 144 h) is 12.8 nM; in the assay on T-47D cells (Homo sapiens, T47D, 144 h), 2.19 nM. The “Degradation rate of ERα in T-47D cells (%)” value on ERα [2] (1nM) was 35%; at ERα [2] (10nM), 71%.
As to `Cn1c(=O)n(C2CCC(=O)NC2=O)c2cc3c(cc21)OC1(CC3)CCN(C[C@H]2CC[C@@H](OC3CCN(c4ccc([C@@H]5c6ccc(O)cc6CC[C@@H]5c5ccccc5)cc4)CC3)CC2)CC1` (stereo partly drawn) [ER-P-65, 3-(1'-(((1S,4S)-4-((1-(4-((1R,2S)-6-hydroxy-2-phenyl-1,2,3,4-tetrahydronaphthalen-1-yl)phenyl)piperidin-4-yl)oxy)cyclohexyl)methyl)-3-methyl-2-oxo-2,3,7,8-tetrahydro-1H-spiro[benzopyrano[6,7-d]imidazole-6,4'-piperidin]-1-yl)piperidine-2,6-dione], the “Degradation rate of ERα in MCF-7 cells (%)” value is reported as 21% on ERα [1] (1nM) and 62% on ERα [1] (10nM). Further, the IC50 in the assay on MCF-7 cells (Homo sapiens, MCF7, 144 h) amounted to 261 nM; with T-47D cells (Homo sapiens, T47D, 144 h), 7.34 nM. Besides, the “Degradation rate of ERα in T-47D cells (%)” value turned out to be 20% on ERα [2] (1nM) and 77% on ERα [2] (10nM).
On to `Cn1c(=O)n(C2CCC(=O)NC2=O)c2cc3c(cc21)C1(CCN(C2CCN(c4ccc([C@@H]5c6ccc(O)cc6CC[C@@H]5c5ccccc5)cc4)CC2)CC1)CO3` (stereo partly drawn) [ER-P-11, 3-(1'-(1-(4-((1R,2S)-6-hydroxy-2-phenyl-1,2,3,4-tetrahydronaphthalen-1-yl)phenyl)piperidin-4-yl)-1-methyl-2-oxo-1,2-dihydro-3H,6H-spiro[benzofuro[5,6-d]imidazole-7,4'-piperidin]-3-yl)piperidine-2,6-dione], for which the “Degradation rate of ERα in MCF-7 cells (%)” value is -18% at ERα [1] (1nM) and -33% at ERα [1] (10nM). The IC50 in the assay with MCF-7 cells (Homo sapiens, MCF7, 144 h) stood at 3540 nM; in the assay on T-47D cells (Homo sapiens, T47D, 144 h), 20.8 nM. Moreover, the “Degradation rate of ERα in T-47D cells (%)” value at ERα [2] (1nM) and on ERα [2] (10nM) was 12% throughout.
On to `O=C1CCC(N2Cc3c(ccc4c3OCC43CCC4(CC3)CN(C3CCN(C(=O)C5CCN(c6ccc([C@@H]7c8ccc(O)cc8CC[C@@H]7c7ccccc7)cc6)CC5)CC3)C4)C2=O)C(=O)N1` (stereo partly drawn) [ER-P-6], for which the “Degradation rate of ERα in MCF-7 cells (%)” value on ERα [1] (1nM) was found to be 55%; on ERα [1] (10nM), 71%. In addition, the half-maximal inhibitory concentration (IC50) was less than 0.256 nM with MCF-7 cells (Homo sapiens, MCF7, 144 h) and 0.86 nM with T-47D cells (Homo sapiens, T47D, 144 h). Further, the “Degradation rate of ERα in T-47D cells (%)” value on ERα [2] (1nM) is 61%; on ERα [2] (10nM) it was 83%.
On to `Cn1c(=O)n(C2CCC(=O)NC2=O)c2cc3c(cc21)C1(CCN(C2CC4(CCN(c5ccc([C@@H]6c7ccc(O)cc7CC[C@@H]6c6ccccc6)cc5)CC4)C2)CC1)CO3` (stereo partly drawn) [ER-P-12, 3-(1'-(7-(4-((1R,2S)-6-hydroxy-2-phenyl-1,2,3,4-tetrahydronaphthalen-1-yl)phenyl)-7-azaspiro[3.5]nonan-2-yl)-1-methyl-2-oxo-1,2-dihydro-3H,6H-spiro[benzofuro[5,6-d]imidazole-7,4'-piperidin]-3-yl)piperidine-2,6-dione], for which the “Degradation rate of ERα in MCF-7 cells (%)” value on ERα [1] (1nM) is -9%; at ERα [1] (10nM) it was -11%. Further, the IC50 was 25.2 nM with MCF-7 cells (Homo sapiens, MCF7, 144 h) and 2.4 nM in the assay with T-47D cells (Homo sapiens, T47D, 144 h). The “Degradation rate of ERα in T-47D cells (%)” value at ERα [2] (1nM) is on record as 34%; on ERα [2] (10nM), 38%.
Regarding `COc1cc2c(cc1C(=O)N[C@H]1CCC(=O)NC1=O)OCC[C@H]1CN(CC3CCC(OC4CCN(c5ccc([C@@H]6c7ccc(O)cc7CC[C@@H]6c6ccccc6)cc5)CC4)CC3)CCN21` (stereo partly drawn) [ER-P-46, (S)-N-((S)-2,6-dioxopiperidin-3-yl)-3-(((1S,4R)-4-((1-(4-((1R,2S)-6-hydroxy-2-phenyl-1,2,3,4-tetrahydronaphthalen-1-yl)phenyl)piperidin-4-yl)oxy)cyclohexyl)methyl)-10-methoxy-2,3,4,4a,5,6-hexahydro-1H-benzo [b]pyrazino[1,2-d][1,4]oxazepine-9-carboxamide], the “Degradation rate of ERα in MCF-7 cells (%)” value on ERα [1] (1nM) is recorded as 6%; on ERα [1] (10nM), 36%. The half-inhibitory concentration (IC50) worked out at 731 nM with MCF-7 cells and 1.17 nM in the assay on T-47D cells. Also, the results for the “Degradation rate of ERα in T-47D cells (%)” value at ERα [2] (1nM) and on ERα [2] (10nM) were 35% and 55%, respectively.
In the case of `Cn1c(=O)n(C2CCC(=O)NC2=O)c2ccc3c(c21)OCC31CCN(C2CCC3(CC2)CCN(c2ccc([C@@H]4c5ccc(O)cc5CC[C@@H]4c4ccccc4)cc2)CC3)CC1` (stereo partly drawn) [ER-P-16, 3-(1'-(3-(4-((1R,2S)-6-hydroxy-2-phenyl-1,2,3,4-tetrahydronaphthalen-1-yl)phenyl)-3-azaspiro[5.5]undecan-9-yl)-1-methyl-2-oxo-1,2-dihydro-3H,7H-spiro[benzofuro[6,7-d]imidazole-6,4'-piperidin]-3-yl)piperidine-2,6-dione], the “Degradation rate of ERα in MCF-7 cells (%)” value on ERα [1] (1nM) is listed as 43%; on ERα [1] (10nM) it was 62%. In addition, the IC50 with MCF-7 cells (Homo sapiens, MCF7, 144 h) is 885 nM; in the assay with T-47D cells (Homo sapiens, T47D, 144 h), 0.62 nM. Also, the “Degradation rate of ERα in T-47D cells (%)” value at ERα [2] (1nM) is 69%; at ERα [2] (10nM), 73%.
